Tests used:
laryngeal papillomatosis = conditions: cited from earlier work
[1] = test system: Recurrent Laryngeal Papillomatosis (RRP); assay: Oral therapy of Recurrent Laryngeal Papillomatosis in a child (case one); type: in vivo, human; conditions: child A. L.; oral I3C 5-7 mg per kg, 6 months; no lengthening of intervals between surgical procedures
Description: The following describes oral Diindolylmethane therapy for the Recurrent Laryngeal Papillomatosis (RRP), a rare condition in which wart like lesions develop in and around the larynx and vocal cords in association with HPV. patient one is a child with RRP. They were diagnosed with RRP. Before Diindolylmethane therapy they had undergone 21 laryngoscopic surgical procedures for recurrent laryngeal papillomas compromising their airway. […] Tracheostomy was performed in 1998 to provide a more secure airway. Diindolylmethane in an absorbable formulation according to U.S. Pat. No. […] Surgical frequency increased immediately to two months.

[2] = test system: cervical intraepithelial neoplasia (CIN); conditions: after 3 months on either 200 mg/day or 400 mg/day of I3C; 8 of 17; cited from earlier work
[3] = Urinary Diindolylmethane levels by GC-MS after a single oral dose; type: in vivo, human; conditions: for Urinary DIM: 75 mg oral dose (300 mg of 25% formulation), single individual
Description: The invention also provides a method for determining the urine level of DIM in a subject following oral administration of Diindolylmethane. In this method 300 mg or more of formulated DIM (75 mg or more of actual DIM) are taken with 8 ounces of water. Urine samples are obtained every 90 minutes for a period of 360 minutes. GC-MS operating conditions included were based on a published GC-MS analysis technique for DIM in urine (Sepkovic D W, Bradlow H L, Bell M, “Quantitative Determination of 3,3′-Diindolylmethane in the Urine of Individuals Receiving Indole-3-Carbinol” J. Nutrition (2002 in press). The following technique for analyzing DIM in urine samples was used: • 1. A 1 cc aliquot of urine for assay of diindolylmethane is mixed with 1 cc of sodium acetate buffer (pH 4.8) and 20 ul Beta-Glucuronidase from Helix Pomatia (110,200 units/ml: Sigma, St. Louis, Mo.). • 2. The solution is incubated at 40° C. for 24 hours. • 3. An internal standard of 4,4′dichlorodiindolylmethane is then added. • 4. The sample is then extracted in twice equal volume of chloroform and the sample vortexed and reduced to dryness under vacuum. • 5. The dried residue is dissolved in 20 uL of anhydrous pyridine and derivatized with 80 ul of N2O-bis-(timethyl-silyl)trifluoroacetamide (BFSTA) (Pierce Biochemical Co, Rockford, Ill.). The sample is heated to 100° C. for one hour. • 6. The derivatized sample is then injected into a Gas Chromatography Mass Spectrometer (GC-MS) in single ion monitoring mode recording results at a derivatized mass of 390. The following ions are monitored: m/z 390 (primary), 391,392 (confirmatory). Area for peak 390 is measured. • 7. Peaks are compared to a standard curve for pure diindoylylmethane in known concentrations as a standard. • 8. Creatinine in each 90 minute timed urine sample was measured by a standard Kinetic Alkaline Picrate (KAP) colormetric assay with results in mg of creatinine per cc of urine. • 9. Results obtained for DIM from the 1 cc aliquot of each timed urine sample are reported as nanograms of DIM per mg of Creatinine. This permits comparisons of urine samples of different water content in different timed samples eliminating the effects of changing hydration status of the human subject.
A related gas chromatography-mass spectrometry (GC-MS) method for the quantitation of Diindolylmethane in urine was developed. This technique is simpler, requiring less sample preparation but similar use of GC-MS analysis and provides results expressed as nanograms of Diindolylmethane per mg of Creatinine (ng DIM per mg Cre). Since production rates of Creatinine (Cre) are constant in an individual this technique allows comparison of urine samples from different times having differing water content. Sepkovic, D. W., Bradlow, H. L. Bell, M., Quantitative Determination of 3,3′-Diindolylmethane in the Urine of Individuals Receiving Indole-3-Carbinol, J. Nutrition (in press 2002).
A single individual was studied after taking 75 mg Diindolylmethane (300 mg of a 25% absorption-enhance formulation of Diindolylmethane) as a single dose after waiting 4 days since prior use of Diindolylmethane. Urine samples were collected every 90 minutes for a total of 360 minutes, frozen, and subsequently analyzed as described.

[4] = test system: cutaneous warts (verrucae vulgaris); assay: Oral Diindolylmethane with Pregnenolone for cutaneous warts (case three); type: in vivo, human; conditions: patient three; dose increased to maximum of 150 mg/day over 6 weeks
Description: Pregnenolone at 50 mg/day in a capsule form was added for immune enhancement.

[5] = test system: HPV-related cervical dysplasia; assay: Oral Diindolylmethane for HPV-related cervical dysplasia (case histories and open pilot study); conditions: four women, 112 mg/day actual Diindolylmethane
Description: Women with moderate to severe dyplasia on cervical biopsies volunteered for an open trial of oral Diindolylmethane supplementation.
Four women, meeting the criteria of moderate to severe HPV-related cervical dysplasia were included in a pilot study.

[6] = human, in vivo
Description: The subject is preferably fasting and plasma is preferred over serum. In this method 120 mg or more of formulated DIM (30 mg or more of actual DIM) are taken orally by a subject fasting for at least 4 hours along with 8 ounces of water. Blood samples are obtained on a timed basis between 120 and 180 minutes after ingesting the DIM. Samples obtained during this timeframe are analyzed by a Gas Chromatography Mass Spectrometry (GC-MS) technique. Circulating amounts of DIM during this timeframe are maximal levels following a single dose. […] The following steps describe the method for determining amounts of absorbed DIM in blood. • 1. […] The following ions are monitored: m/z 390 (primary), 391,392 (confirmatory). Area for peak 390 is measured. • 9. […]
For blood level studies adult subjects were studied in a fasting state. […] Sample analysis using a technique for GC-MS measurement of Diindolylmethane, involving acetonitrile extraction, silyation, and GC-MS quantitation was performed as adapted from the literature (Stresser, D. M., Bjeldanes, L. F., Bailey, G. S., et al., “The anticarcinogen 3,3′-Diindolylmethane is an inhibitor of cytochrome P-450”, J. Biochem. Toxicol., 10(4):191-201 (1995)) and described in section 4.2 above. […]

[7] = test system: verrucae involving the plantar skin; assay: Oral Diindolylmethane for childhood warts (case two); type: in vivo, human; conditions: child two; 75 mg/day (3 mg/kg/day)
Text: The usefulness of oral forms of Diindolylmethane in treating verrucous disease of childhood is illustrated by the case of C. B. The subject is a child with classic verrucae involving the plantar skin of one foot. The process began as a single wart, which was frozen with liquid nitrogen by a pediatrician. […] Within 2 months, however, a new wart recurred at the sight of the original scar. Upon recurrence the primary lesion measured approximately 0.75 cm in diameter but was now circled by a number of smaller satellite lesions surrounding the recurrent primary wart.
Treatment was initiated with 75 mg/day of Diindolylmethane in an absorbable formulation (300 mg total formula weight). With the patient weighing 25 kg, this provided 3 mg/kg/day of Diindolylmethane and 12 mg/kg/day of the formulation. […] There was no pain or scarring associated with the gradual resolution.

[8] = dietary supplementation with I3C, laryngeal papillomatosis

Row | Structure (SMILES) | Doses with neurologic and gastrointestinal toxicity (laryngeal papillomatosis; clinical use of I3C) | Disappearance of existing lesions (laryngeal papillomatosis; [8]) | Patients with cessation of papilloma growth (laryngeal papillomatosis; [8]) | Maximal tolerated dose (laryngeal papillomatosis; gastrointestinal and central nervous system side effects on increasing the dose) | Clinical response of laryngeal papillomas [1] | Treated patients with normalized cervical biopsy [2] | Urinary DIM ([3]; 90 minutes) | Urinary DIM ([3]; 180 minutes) | Urinary DIM ([3]; 270 minutes) | Urinary DIM ([3]; 360 minutes) | Plateau of urinary Diindolylmethane ([3]; 75 mg oral dose, around 180 minutes following oral dosing) | Side effects [4] | Side effects or adverse events [5] | Augmentation in Diindolylmethane blood levels from the low to high dose [6] | Side effects associated with the oral treatment [7]
1 | OCc1c[nH]c2ccccc12 [I3C, Indole-3-carbinol] | more than 400 mg per day | did not result in the disappearance of existing lesions in any patient | 33% | 5 to 7 mg/kg | failed to produce clinical improvement | 50% |  |  |  |  |  |  |  |  | 
2 | c1ccc2c(Cc3c[nH]c4ccccc34)c[nH]c2c1 [Diindolylmethane] |  |  |  |  |  |  | 2.6 ng/mg Cre | 3.82 ng/mg Cre | 3.30 ng/mg Cre | 2.50 ng/mg Cre | 3.5 ng/mg Creatinine | without side effects | no significant side effects or adverse events | more than 3 times | No side effects

Source: US8236848B2, “Diindolylmethane for the treatment of HPV infection” (BioResponse, L.L.C., priority 2001, dated 2012)
